Measurements reported in ChEMBL document CHEMBL1201862, “PubChem BioAssay data set” (2004).
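Step 1: Grow cells in 96-well plates. Step 2: Expose to compound for 48 hours at 5 concentrations. Step 3: Interpolate endpoints linearly; if unreached, use highest concentration. GI50 is the concentration that inhibits growth by half.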 Calls of active or inactive are those of the source. Rule as the data show it: active = GI50 up to about 1.1 µM and inactive = higher.

Legend:
Assay in all cases: DTP human tumour cell line panel, 48 h
TK-10 = tested on: TK-10
NCI/ADR-RES = tested on: NCI/ADR-RES
UACC-257 = tested on: UACC-257
CAKI-1 = tested on: CAKI-1
NCI-H226 = tested on: NCI-H226
DU-145 = tested on: DU-145
MDA-N = tested on: MDA-N
SF-539 = tested on: SF-539
HT-29 = tested on: HT-29
LOX IMVI = tested on: LOX IMVI
SNB-19 = tested on: SNB-19
MOLT-4 = tested on: MOLT-4
OVCAR-4 = tested on: OVCAR-4
SR = tested on: SR
HOP-92 = tested on: HOP-92
OVCAR-5 = tested on: OVCAR-5
EKVX = tested on: EKVX
Malme-3M = tested on: Malme-3M
SW-620 = tested on: SW-620
HL-60 = tested on: HL-60
UACC-62 = tested on: UACC-62
A549 = tested on: A549
SK-MEL-2 = tested on: SK-MEL-2
MDA-MB-231 = tested on: MDA-MB-231
M14 = tested on: M14
HOP-62 = tested on: HOP-62
NCI-H23 = tested on: NCI-H23
OVCAR-3 = tested on: OVCAR-3
IGROV-1 = tested on: IGROV-1
A498 = tested on: A498
SN12C = tested on: SN12C
RPMI-8226 = tested on: RPMI-8226
SNB-75 = tested on: SNB-75
UO-31 = tested on: UO-31
U-251 = tested on: U-251
COLO 205 = tested on: COLO 205
SK-OV-3 = tested on: SK-OV-3
K562 = tested on: K562
NCI-H460 = tested on: NCI-H460
RXF 393 = tested on: RXF 393
MDA-MB-435 = tested on: MDA-MB-435
HCT-116 = tested on: HCT-116
SF-268 = tested on: SF-268
CCRF-CEM = tested on: CCRF-CEM
MCF7 = tested on: MCF7
786-0 = tested on: 786-0
NCI-H522 = tested on: NCI-H522
SF-295 = tested on: SF-295
SK-MEL-5 = tested on: SK-MEL-5
T47D = tested on: T47D
PC-3 = tested on: PC-3
KM12 = tested on: KM12
Hs-578T = tested on: Hs-578T

Measured: GI50

FC(F)(F)c1cccc(-c2nc3ccccc3c3c2[C@@]2(N4CCCC4)CCCC[C@@H]32)c1
inactive: TK-10 30.3 µM | NCI/ADR-RES > 100 µM | UACC-257 44.9 µM | CAKI-1 50.9 µM | NCI-H226 51.2 µM | DU-145 51.5 µM | MDA-N 32.2 µM | SF-539 37.1 µM | HT-29 29.1 µM | LOX IMVI 18.1 µM | SNB-19 50.9 µM | MOLT-4 28.1 µM | OVCAR-4 35.3 µM | SR 40.9 µM | HOP-92 13.2 µM | OVCAR-5 34.4 µM | EKVX 28.7 µM | Malme-3M 32.9 µM | SW-620 36.2 µM | HL-60 25.8 µM | UACC-62 23.5 µM | A549 31.7 µM | SK-MEL-2 17.8 µM | MDA-MB-231 18.5 µM | M14 66.2 µM | HOP-62 32.3 µM | NCI-H23 32.4 µM | OVCAR-3 38.9 µM | IGROV-1 12 µM | A498 31.2 µM | SN12C 40.4 µM | RPMI-8226 17.5 µM | SNB-75 30.1 µM | UO-31 18 µM | U-251 23.1 µM | COLO 205 15.5 µM | SK-OV-3 36.9 µM | K562 30.8 µM | NCI-H460 28.1 µM | RXF 393 38.1 µM | MDA-MB-435 23.6 µM | HCT-116 35.6 µM | SF-268 33.3 µM | CCRF-CEM 29.6 µM | MCF7 20 µM | 786-0 38.4 µM | NCI-H522 13.3 µM | SF-295 26.2 µM | SK-MEL-5 15.8 µM | T47D 76 µM | PC-3 37 µM | KM12 35.6 µM | Hs-578T 43.6 µM
